Laboratory results published in patent US10335382B2, “Use of hydrogen sulfide synthesis inhibitors for cancer therapy” (THE BOARD OF REGENTS OF THE UNIVERSITY OF TEXAS SYSTEM, priority 2013, dated 2019).

How the values were obtained:
Format in all cases: cell-based, human
NCM356 cells = assay: NCM356 non-malignant colonic epithelial cell proliferation (xCELLigence); conditions: AOAA 1 mM
Procedure: Cellular proliferation assays are conducted in HCT116 CRC cells in vitro, using the Roche XCelligence method. Concentration-response curves with the various AOAA analogs are prepared (concentration range: 1, 3, 10, 100, 300 and 600 μM). AOAA is used as the reference control, which, according to preliminary data, has an IC50 of approximately 300 μM. Control proliferation studies in the non-carcinogenic colonic epithelial cell line NCM356 are used to confirm cancer-cell selectivity. Since the NCM356 cells contain low levels of CBS, based on previous studies it is expect that AOAA (and its prodrugs) will only exert modest antiproliferative effects in these cells. Proliferation-inhibitory effects of the AOAA prodrugs in NCM356 cells indicate CBS-independent pharmacological actions. […]
Cellular migration and invasion assays were performed as described (Chao et al. (1996) Cancer Res. 56:4811-19). […] Migrated and invaded cells were then fixed in Carson's fixative, stained in 0.33% toluidine blue and quantified by visual counting. For the HCT116-EAhy926 co-culture experiment, the cancer cell line was grown to confluence in the bottom wells of the transwell chambers and then endothelial cell migration was assessed (Coletta et al. (2012) Proc Natl Acad Sci USA. 109:9161-66). […]

HCT116 cells [1] = assay: HCT116 cell migration and invasion (Transwell); conditions: AOAA 1 mM, fibroblast-conditioned media
Procedure: FIG. 3. […] (A, B) The lentiviral shRNA vectors targeting CBS (shCBS) and CSE (shCSE) were transfected into HCT116 cells. A non-targeting sequence was used as control (shNT). […] Following CBS and CSE silencing, cells were seeded at the density of 3000 cells/well in xCELLigence plates and proliferation was monitored for 36 hours. […] The NCM356 cells were infected overnight with a CBS expressing adenovirus (Ad-CBS, 10 multiplicity of infection (MOI)) or its control, a green fluorescent protein (Ad-GFP). The culture media was then replaced and cells were seeded in XCelligence plates at 3000 cells/well. Cell proliferation was then measured real-time over 36 hours. […] (H, I) The effect of AOAA and NaHS was also tested on HCT116 cell migration (H) and invasion (I). Cells were pretreated either with vehicle or AOAA (1 mM) and seeded in serum-free DMEM (0.1% albumin) in the upper chamber of a trans-well insert uncoated (migration assay) or coated with growth factor reduced matrigel (invasion assay). Migration and invasion were stimulated by fibroblast-conditioned media in the lower chamber for 6 and 24 hours, respectively. […] (J) In a co-culture of human endothelial cells (EAhy926) and colon cancer cells (HCT116), HCT 116 cells were seeded in the lower chamber of a trans-well insert and cultured to confluence. Endothelial cells were then seeded into the upper chamber in serum-free DMEM and allowed to migrate for 4 hours at 37° C. […] Western blots are representative of at least three independent experiments; proliferation/migration/invasion assays and H2S measurements represent mean±SEM of n=3 determinations.
Cellular migration and invasion assays were performed as described (Chao et al. (1996) Cancer Res. 56:4811-19). Briefly, 10^5 cells were suspended in serum-free media containing 0.1% BSA and then added to 6.5 mm Transwell chambers ([…]) uncoated (migration assay) or coated with a thin layer (45 μl) of growth factor reduced matrigel (cell invasion assay). Cells were allowed to migrate toward the bottom chamber containing fibroblast (NIH-3T3 cells) conditioned media at 37° C. for 6 or 24 h for cell migration and invasion, respectively. Migrated and invaded cells were then fixed in Carson's fixative, stained in 0.33% toluidine blue and quantified by visual counting. For the HCT116-EAhy926 co-culture experiment, the cancer cell line was grown to confluence in the bottom wells of the transwell chambers and then endothelial cell migration was assessed (Coletta et al. (2012) Proc Natl Acad Sci USA. 109:9161-66).

HCT116 cells [2] = assay: Bioenergetic analysis in intact cells (XF24 Extracellular Flux Analyzer); conditions: AOAA 1 mM
Procedure: The XF24 Extracellular Flux Analyzer (Seahorse Bioscience, Billerica, Mass.) was used to measure bioenergetic function as described in Módis et al. ((2013) FASEB J 27:601-11) and Wu et al. ((2007) Am J Physiol Cell Physiol. 292:C125-36). Oxygen consumption rate (OCR) after oligomycin (1.5 μg/ml) was used to assess ATP production rate and OCR after FCCP (0.5 μM) to assess maximal mitochondrial respiratory capacity. 2-deoxyglucose (100 mM) was used to estimate cellular glycolytic dependency and antimycin A (2 μg/m) and rotenone (2 μM) were used to inhibit the flux of electrons through complex III and I, to detect residual non-mitochondrial activity. For the measurement of glycolytic parameters, the changes in proton production rate (PPR) were monitored in response to the sequential administration of D-glucose (10 mM), oligomycin (1.5 μM) and 2-deoxyglucose (100 mM), to assess glycolysis, maximal glycolytic capacity, glycolytic reserve capacity, and non-glycolytic acidification rate, respectively. GAPDH activity was determined by a kinetic assay (ScienCell, Carlsbad, Calif.).

With NOCC(=O)O [AOAA, aminooxyacetic acid] the NCM356 growth (NCM356 cells) was “did not affect”, the HCT116 cell migration (HCT116 cells [1]; 6 hours) was “markedly reduced” and the HCT116 cell invasion (HCT116 cells [1]; matrigel, 24 hours) was “markedly reduced”. For the same compound, the “basal OCR, calculated ATP production, maximal respiration and Spare Respiratory Capacity” value (HCT116 cells [2]) was “significantly decreased” and the “maximal glycolytic capacity and glycolytic reserve capacity” value (HCT116 cells [2]) was “significantly diminished”.
